Holding throughout (type): cell-based
For test [1], the target named is human EGFR L858R and T790M double mutation (LT) (Homo sapiens (Human), UniProt P00533, L858R/T790M). The test is described as follows: Ba/F3-EGFR L858R/T790M cell anti-proliferative assay (CellTiter 96 MTS, 72 h).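 Also: Ba/F3 cells carrying the EGFR L858R/T790M double mutant are able to grow without IL-3.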 To be noted: Ba/F3-EGFR L858R/T790M cells; read-out: EGFR exon 21 L858R and T790M mutation IC50.
Description: An expression vector, pLVX-IRES puro (Clontech) coding for human EGFR L858R and T790M double mutation, was transfected into HEK293 cells by the Trans-Lentiviral ORF Packaging System (Thermo Scientific), to produce virus encoding EGFR L858R and T790M double mutations. […] Ba/F3 cells expressing EGFR L858R and T790M double mutation (named Ba/F3-EGFR L858R/T790M) can proliferate in the absence of IL-3. The anti-proliferative activity of compounds was determined as follows: BaF3-EGFR L858R/T790M cells seeded in 96 well plates (2500 cells/well) were treated with test compound (dissolved in DMSO) at a series of concentrations (4-fold dilution, top concentration: 10,000 nM). The plates were incubated for 72 h in a 37° C. incubator with 5% CO2, and the number of viable cells in each well were measured indirectly by CellTiter 96® Aqueous One Solution Cell Proliferation Assay (Promega; this assay is a colorimetric method for determining the number of viable cells through measurement of their metabolic activity by detection of enzymatic conversion of tetrazolium salts into blue formazan derivatives). Reagent (20 μL) was added into each well, and the plates were returned to the incubator for 2 h. The absorbance in each well was then measured at 490 nm using an Envision plate reader (Perkin Elmer).
Test [2] deals with Her2 exon 20 YVMA insertion (A775_G776ins YVMA) (Homo sapiens (Human), UniProt P04626, INS775YVMA). The test is described as follows: Ba/F3-Her2 Exon20 YVMA cell anti-proliferative assay (CellTiter 96 MTS, 72 h). Conditions: Ba/F3-Her2 Exon20 YVMA cells. The source says:
Ba/F3 cells expressing Her2 Exon20 YVMA insertions (named Ba/F3-Her2 Exon20 YVMA) can proliferate in the absence of IL-3.

The target of test [3] is human EGFR exon 20 insertion ASV (V769_D770insASV) (Homo sapiens (Human), UniProt P00533, INS769ASV). Briefly: Ba/F3-EGFR-Exon20-ASV cell anti-proliferative assay (CellTiter 96 MTS, 72 h).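 Also: Ba/F3 cells bearing the EGFR exon 20 ASV insertion, a line able to proliferate without IL-3.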 Conditions: Ba/F3-EGFR-Exon20-ASV cells.
Test [4] concerns the target human EGFR E746-A750 deletion and T790M Mutation (DT) (Homo sapiens (Human), UniProt P00533, DEL746-750/T790M). The test is described as follows: Ba/F3-EGFR-Del/T790M cell anti-proliferative assay (CellTiter 96 MTS, 72 h). Conditions: Ba/F3-EGFR-Del/T790M cells; read-out: EGFR exon 19 deletion and T790M mutation IC50.
Test [5] has as its target human EGFR exon 20 insertion NPG (H773_V774insNPG) (Homo sapiens, UniProt P00533, INS773NPG, cells depend on it). Briefly: Ba/F3-EGFR-Exon20-NPG cell anti-proliferative assay (CellTiter 96 MTS, 72 h). Conditions: read-out: EGFR exon 20 NPG insertion IC50.

Sequence of human EGFR exon 20 insertion NPG (H773_V774insNPG) (P00533 with tags, fused parts or gaps INS773NPG limits assumed): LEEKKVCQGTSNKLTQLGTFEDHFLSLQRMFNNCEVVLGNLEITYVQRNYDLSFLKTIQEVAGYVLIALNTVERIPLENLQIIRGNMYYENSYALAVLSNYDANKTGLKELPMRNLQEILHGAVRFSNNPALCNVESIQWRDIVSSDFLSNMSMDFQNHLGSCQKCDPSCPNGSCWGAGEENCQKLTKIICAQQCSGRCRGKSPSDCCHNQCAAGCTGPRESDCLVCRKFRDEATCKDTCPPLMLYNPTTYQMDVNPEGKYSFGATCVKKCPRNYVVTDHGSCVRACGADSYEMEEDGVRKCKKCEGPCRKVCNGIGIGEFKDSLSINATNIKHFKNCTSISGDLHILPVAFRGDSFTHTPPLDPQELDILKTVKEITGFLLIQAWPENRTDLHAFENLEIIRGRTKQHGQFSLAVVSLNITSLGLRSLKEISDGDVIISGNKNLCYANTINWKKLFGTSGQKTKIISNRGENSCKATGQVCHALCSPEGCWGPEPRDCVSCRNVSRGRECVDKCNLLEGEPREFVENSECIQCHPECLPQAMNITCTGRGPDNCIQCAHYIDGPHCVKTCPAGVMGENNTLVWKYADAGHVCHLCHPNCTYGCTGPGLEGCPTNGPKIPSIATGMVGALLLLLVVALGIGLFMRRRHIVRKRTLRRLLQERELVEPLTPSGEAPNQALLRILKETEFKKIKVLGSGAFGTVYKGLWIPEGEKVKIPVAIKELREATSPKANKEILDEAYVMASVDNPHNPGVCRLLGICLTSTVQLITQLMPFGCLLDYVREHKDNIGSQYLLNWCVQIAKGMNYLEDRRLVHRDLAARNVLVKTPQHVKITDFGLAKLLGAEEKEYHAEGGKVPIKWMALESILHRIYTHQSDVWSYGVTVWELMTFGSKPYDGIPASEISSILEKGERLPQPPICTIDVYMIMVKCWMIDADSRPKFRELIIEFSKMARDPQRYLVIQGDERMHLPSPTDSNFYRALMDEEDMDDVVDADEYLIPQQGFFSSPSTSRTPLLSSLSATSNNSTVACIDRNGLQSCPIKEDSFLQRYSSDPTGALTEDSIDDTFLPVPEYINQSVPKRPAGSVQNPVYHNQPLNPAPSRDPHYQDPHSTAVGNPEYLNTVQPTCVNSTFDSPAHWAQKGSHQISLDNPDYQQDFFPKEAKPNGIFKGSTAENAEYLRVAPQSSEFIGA
Sequence of human EGFR E746-A750 deletion and T790M Mutation (DT) (P00533 other isoform, or with tags, fused parts or gaps T790M/del E746-A750): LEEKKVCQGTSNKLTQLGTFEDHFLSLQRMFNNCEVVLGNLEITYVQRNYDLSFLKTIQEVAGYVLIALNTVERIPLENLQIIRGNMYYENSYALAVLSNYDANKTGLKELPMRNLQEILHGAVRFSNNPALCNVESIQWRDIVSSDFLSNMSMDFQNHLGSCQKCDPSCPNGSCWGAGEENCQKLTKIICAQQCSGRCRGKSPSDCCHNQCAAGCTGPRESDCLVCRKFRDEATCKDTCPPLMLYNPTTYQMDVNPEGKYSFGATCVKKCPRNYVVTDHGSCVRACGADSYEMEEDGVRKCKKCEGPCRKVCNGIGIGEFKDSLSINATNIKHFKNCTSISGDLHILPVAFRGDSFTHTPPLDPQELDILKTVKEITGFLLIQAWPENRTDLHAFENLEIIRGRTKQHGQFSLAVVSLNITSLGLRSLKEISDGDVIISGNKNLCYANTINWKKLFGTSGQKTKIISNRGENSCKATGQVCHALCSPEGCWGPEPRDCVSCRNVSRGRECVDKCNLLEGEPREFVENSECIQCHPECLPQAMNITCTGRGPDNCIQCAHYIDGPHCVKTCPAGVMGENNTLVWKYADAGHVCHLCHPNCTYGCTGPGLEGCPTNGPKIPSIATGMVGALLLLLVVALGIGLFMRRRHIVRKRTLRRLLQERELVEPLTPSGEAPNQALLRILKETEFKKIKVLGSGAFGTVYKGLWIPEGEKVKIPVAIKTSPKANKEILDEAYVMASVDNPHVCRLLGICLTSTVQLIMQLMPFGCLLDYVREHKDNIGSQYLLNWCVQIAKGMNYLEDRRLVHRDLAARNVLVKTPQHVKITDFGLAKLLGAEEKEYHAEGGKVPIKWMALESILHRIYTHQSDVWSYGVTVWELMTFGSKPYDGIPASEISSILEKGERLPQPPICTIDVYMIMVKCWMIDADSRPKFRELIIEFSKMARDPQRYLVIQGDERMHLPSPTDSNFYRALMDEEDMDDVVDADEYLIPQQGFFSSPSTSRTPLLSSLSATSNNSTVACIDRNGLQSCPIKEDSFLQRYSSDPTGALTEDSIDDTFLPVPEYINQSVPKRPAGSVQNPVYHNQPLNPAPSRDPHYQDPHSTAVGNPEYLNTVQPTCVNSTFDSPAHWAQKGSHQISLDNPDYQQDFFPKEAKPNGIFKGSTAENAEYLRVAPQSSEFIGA
Sequence of Her2 exon 20 YVMA insertion (A775_G776ins YVMA) (P04626 other isoform, or with tags, fused parts or gaps ins YVMA behind 775): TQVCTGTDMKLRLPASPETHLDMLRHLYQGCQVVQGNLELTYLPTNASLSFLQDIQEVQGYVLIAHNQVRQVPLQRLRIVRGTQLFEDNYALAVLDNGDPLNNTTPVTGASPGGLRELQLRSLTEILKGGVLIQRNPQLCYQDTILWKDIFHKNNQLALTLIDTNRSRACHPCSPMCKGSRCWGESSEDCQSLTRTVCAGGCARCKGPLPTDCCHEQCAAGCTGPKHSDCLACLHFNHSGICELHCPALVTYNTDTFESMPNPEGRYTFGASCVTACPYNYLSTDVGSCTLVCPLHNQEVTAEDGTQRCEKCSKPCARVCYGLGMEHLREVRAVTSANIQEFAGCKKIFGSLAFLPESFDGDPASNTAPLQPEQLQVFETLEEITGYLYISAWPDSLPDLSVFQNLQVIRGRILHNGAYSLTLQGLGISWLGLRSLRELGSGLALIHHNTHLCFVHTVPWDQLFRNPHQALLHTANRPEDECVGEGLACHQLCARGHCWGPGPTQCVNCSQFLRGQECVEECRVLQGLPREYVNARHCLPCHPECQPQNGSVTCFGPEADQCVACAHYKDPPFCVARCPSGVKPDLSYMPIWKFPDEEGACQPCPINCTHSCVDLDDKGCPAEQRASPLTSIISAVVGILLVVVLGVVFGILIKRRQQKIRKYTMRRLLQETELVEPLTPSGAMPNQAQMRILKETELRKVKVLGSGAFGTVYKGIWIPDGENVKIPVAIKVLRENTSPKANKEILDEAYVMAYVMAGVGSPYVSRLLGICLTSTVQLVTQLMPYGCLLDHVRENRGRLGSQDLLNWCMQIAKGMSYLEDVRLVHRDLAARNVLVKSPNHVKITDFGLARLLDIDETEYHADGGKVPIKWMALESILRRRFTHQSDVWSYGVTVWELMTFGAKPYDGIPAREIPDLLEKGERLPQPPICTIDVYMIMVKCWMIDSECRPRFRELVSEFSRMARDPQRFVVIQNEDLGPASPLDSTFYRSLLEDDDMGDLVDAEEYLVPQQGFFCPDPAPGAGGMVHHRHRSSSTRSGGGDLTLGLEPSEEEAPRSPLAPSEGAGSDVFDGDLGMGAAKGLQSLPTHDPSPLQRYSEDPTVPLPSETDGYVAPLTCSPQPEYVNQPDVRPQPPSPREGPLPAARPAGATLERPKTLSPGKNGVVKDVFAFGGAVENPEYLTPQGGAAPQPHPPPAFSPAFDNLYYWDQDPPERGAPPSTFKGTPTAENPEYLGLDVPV
Sequence of human EGFR L858R and T790M double mutation (LT) (P00533 25-1210 T790M/L858R): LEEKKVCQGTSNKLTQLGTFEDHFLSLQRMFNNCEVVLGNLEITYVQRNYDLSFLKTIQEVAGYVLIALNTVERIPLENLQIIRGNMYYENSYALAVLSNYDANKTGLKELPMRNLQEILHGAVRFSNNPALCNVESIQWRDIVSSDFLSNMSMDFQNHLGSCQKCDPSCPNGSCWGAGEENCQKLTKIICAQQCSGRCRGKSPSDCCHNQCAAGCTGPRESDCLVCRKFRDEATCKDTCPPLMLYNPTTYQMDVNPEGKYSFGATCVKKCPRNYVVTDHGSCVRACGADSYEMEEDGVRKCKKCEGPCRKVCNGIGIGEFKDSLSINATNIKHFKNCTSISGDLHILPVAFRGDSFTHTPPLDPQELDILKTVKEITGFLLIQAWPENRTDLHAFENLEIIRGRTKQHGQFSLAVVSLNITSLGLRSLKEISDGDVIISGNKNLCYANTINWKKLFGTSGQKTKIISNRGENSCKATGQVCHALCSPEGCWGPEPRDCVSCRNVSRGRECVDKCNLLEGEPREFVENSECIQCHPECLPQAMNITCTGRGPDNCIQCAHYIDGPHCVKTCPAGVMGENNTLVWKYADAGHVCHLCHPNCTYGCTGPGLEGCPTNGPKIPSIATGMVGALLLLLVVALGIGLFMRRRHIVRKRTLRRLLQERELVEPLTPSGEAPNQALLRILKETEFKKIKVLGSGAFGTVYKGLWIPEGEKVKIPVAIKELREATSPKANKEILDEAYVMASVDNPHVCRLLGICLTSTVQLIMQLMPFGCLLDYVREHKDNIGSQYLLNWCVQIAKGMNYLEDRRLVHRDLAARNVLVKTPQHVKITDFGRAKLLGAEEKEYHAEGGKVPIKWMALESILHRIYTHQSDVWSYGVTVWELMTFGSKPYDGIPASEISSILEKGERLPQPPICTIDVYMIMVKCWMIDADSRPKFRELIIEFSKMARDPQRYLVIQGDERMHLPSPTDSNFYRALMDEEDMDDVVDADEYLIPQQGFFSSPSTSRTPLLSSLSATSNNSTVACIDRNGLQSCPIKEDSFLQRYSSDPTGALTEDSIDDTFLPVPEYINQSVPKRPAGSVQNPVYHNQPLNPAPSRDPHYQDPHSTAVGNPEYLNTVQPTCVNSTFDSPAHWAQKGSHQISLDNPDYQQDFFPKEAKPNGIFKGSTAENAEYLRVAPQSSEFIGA

Turning to `C=CC(=O)Nc1cc(Nc2ncc(C(=O)OC(C)C)c(-c3cn(C)c4ccccc34)n2)c(OC)cc1OCCN(C)C` [Example 67, isopropyl 2-((5-acrylamido-4-(2-(dimethylamino)ethoxy)-2-methoxyphenyl)amino)-4-(1-methyl-1H-indol-3-yl)pyrimidine-5-carboxylate], the half-inhibitory concentration (IC50) in test [1], in test [2], in test [3], in test [4] and in test [5] was less than 100 nM in each case.

In the case of `C=CC(=O)Nc1cc(Nc2ncc(C(=O)OC(C)C)c(-c3cn(C)c4ccccc34)n2)c(OC)cc1N(C)CCN(C)C` [Example 10, isopropyl 2-((5-acrylamido-4-((2-(dimethylamino)ethyl)(methyl)amino)-2-methoxyphenyl)amino)-4-(1-methyl-1H-indol-3-yl)pyrimidine-5-carboxylate], the IC50 in test [1], in test [2], in test [3], in test [4] and in test [5] was less than 100 nM each time.

Regarding `C=CC(=O)Nc1cc(Nc2ncc(C(=O)OC(C)C)c(-c3cn(CC)c4ccccc34)n2)c(OC)cc1N(C)CCN(C)C` [Example 77, isopropyl 2-((5-acrylamido-4-((2-(dimethylamino)ethyl)(methyl)amino)-2-methoxyphenyl)amino)-4-(1-ethyl-1H-indol-3-yl)pyrimidine-5-carboxylate], the IC50 in test [1], in test [2], in test [3], in test [4] and in test [5] was less than 100 nM in each case.

In the case of `C=CC(=O)Nc1cc(Nc2ncc(Cl)c(-c3cnn4ccccc34)n2)c(OC)cc1N(C)CCN(C)C` [Example 52, N-(5-((5-chloro-4-(pyrazolo[1,5-a]pyridin-3-yl)pyrimidin-2-yl)amino)-2-((2-(dimethylamino)ethyl)-(methyl)amino)-4-methoxyphenyl)-acrylamide], the IC50 (as a rule, the concentration that gives 50% inhibition) was less than 100 nM in test [1]; 100 to 500 nM in test [2]; less than 100 nM in test [3]; less than 100 nM in test [4]; less than 100 nM in test [5].

Consider `C=CC(=O)Nc1cc(Nc2ncc(C(=O)OC(C)C)c(-c3cn(C)c4ccccc34)n2)c(OC)cc1N(C)C[C@@H]1CCCN1` [Example 73], for which the IC50 in test [1], in test [2], in test [3], in test [4] and in test [5] was less than 100 nM in each case.

For `C=CC(=O)Nc1cc(Nc2ncc(Cl)c(-c3c[nH]c4ccccc34)n2)c(OC)cc1N(C)CCN(C)C` [Example 56, N-(5-((5-chloro-4-(1H-indol-3-yl)pyrimidin-2-yl)amino)-2-((2-(dimethylamino)ethyl)(methyl)amino)-4-methoxyphenyl)acrylamide], the IC50 in test [1], in test [2], in test [3], in test [4] and in test [5] was less than 100 nM in each case.

The values are drawn from US10227342B2 (ARIAD PHARMACEUTICALS, INC., priority 2014, dated 2019).
